Structures are written as SMILES.

In assay [1] the target is T1, Calcium-activated potassium channel subunit alpha-1 (Homo sapiens, UniProt Q12791). Briefly: BKca channel opening activity in HEK293 cells stably transfected with BKca alpha subunits at 10 uM concentration using a [86Rb+] efflux assay. It counts as cell-based.
Assay [2] deals with T1, Calcium-activated potassium channel subunit alpha-1. Briefly: [86Rb+] efflux induced by BKca alpha subunits expressed in HEK293 cells at 10 uM. It counts as cell-based.
Assay [3] is filed under the species Sus scrofa. The assay is described as follows: In vitro maximal efficacy in stable twitch response in isolated Landrace pig bladder detrusor strips relative to P-1075.
For assay [4], the species on record is Sus scrofa. Briefly: In vitro concentration to suppress electrically stimulated contraction in isolated Landrance pig bladder detrusor strips. It counts as functional.
The target in assay [5] is T1, Calcium-activated potassium channel subunit alpha-1. The assay is described as follows: BKca opening activity as outward current at 10 uM in HEK293 cells. It is filed as cell-based.

T1 sequence (Q12791 whole entry): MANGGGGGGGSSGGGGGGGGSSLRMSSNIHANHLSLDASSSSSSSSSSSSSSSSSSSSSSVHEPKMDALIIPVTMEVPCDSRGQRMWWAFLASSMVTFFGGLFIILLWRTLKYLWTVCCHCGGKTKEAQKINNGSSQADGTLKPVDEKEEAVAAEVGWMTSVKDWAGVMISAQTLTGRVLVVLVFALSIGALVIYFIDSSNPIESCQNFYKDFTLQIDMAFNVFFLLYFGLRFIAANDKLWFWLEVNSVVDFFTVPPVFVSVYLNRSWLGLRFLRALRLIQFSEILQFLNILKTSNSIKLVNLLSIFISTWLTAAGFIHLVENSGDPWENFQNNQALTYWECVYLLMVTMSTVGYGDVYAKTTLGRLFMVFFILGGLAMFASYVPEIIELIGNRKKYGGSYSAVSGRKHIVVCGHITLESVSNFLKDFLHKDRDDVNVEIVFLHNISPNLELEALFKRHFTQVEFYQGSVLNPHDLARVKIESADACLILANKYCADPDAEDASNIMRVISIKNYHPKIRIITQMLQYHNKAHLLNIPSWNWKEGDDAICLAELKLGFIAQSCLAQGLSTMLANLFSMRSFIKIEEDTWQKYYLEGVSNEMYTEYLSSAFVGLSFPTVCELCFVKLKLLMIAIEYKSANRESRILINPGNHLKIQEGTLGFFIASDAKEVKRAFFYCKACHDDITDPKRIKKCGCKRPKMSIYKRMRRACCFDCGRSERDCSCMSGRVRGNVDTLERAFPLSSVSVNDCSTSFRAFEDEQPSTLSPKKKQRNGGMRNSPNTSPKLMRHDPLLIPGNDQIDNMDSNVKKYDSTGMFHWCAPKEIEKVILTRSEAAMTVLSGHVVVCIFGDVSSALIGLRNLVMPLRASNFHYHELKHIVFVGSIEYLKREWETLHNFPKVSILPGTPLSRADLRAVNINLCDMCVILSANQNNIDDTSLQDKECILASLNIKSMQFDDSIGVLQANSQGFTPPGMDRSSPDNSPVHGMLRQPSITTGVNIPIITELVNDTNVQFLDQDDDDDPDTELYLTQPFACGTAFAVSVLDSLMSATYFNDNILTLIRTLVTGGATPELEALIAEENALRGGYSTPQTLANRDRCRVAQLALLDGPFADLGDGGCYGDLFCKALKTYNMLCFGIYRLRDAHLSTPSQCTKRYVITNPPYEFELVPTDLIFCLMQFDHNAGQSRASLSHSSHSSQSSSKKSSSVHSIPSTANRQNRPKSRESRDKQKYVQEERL

Usually EC50 stands for the concentration at which the effect is half-maximal. `N#Cc1c(N2CCCCCCC2)[nH]c2cccnc12`: in assay [1], the Response was determined as 0%. Besides, the concentration giving a half-maximal response (EC50) entry in assay [2] is recorded as “Not Active”.
For `N#Cc1c(N2CCCCC2)[nH]c2cccnc12`, the Efficacy in the assay filed under Sus scrofa [3] came out at 67%. Also, the EC50 in the assay filed under Sus scrofa [4] is 24.8 µM; in assay [2], “Not Active”. For the same molecule, the Response in assay [1] came out at 3.02%.
As to `N#Cc1c(N2CC=CC2)[nH]c2cccnc12`, the Response in assay [1] is 0%. In addition, in assay [2], the concentration for a half-maximal effect (EC50) result is recorded as “Not Active”.
For the molecule `N#Cc1c(-n2ccnc2)[nH]c2cccnc12`, the Response in assay [1] worked out at 62%. Besides, in assay [2], the EC50 was 5.86 µM.
Taken in the same sequence, the figures for `COC(=O)C1CCN(c2[nH]c3cccnc3c2C#N)CC1` were 55% and 17 µM.
Taken in the same sequence, the figures for `N#Cc1c(O)[nH]c2cccnc12` were 65% and 13.4 µM.
For `CN(C)c1[nH]c2cccnc2c1C#N`, the Activity in assay [5] came out at 75.5%. The same molecule gave an Efficacy in the assay listed under Sus scrofa [3] of 58%. Further, the EC50 in the assay filed under Sus scrofa [4] is 23.5 µM; in assay [2] it was 5.13 µM. Also, the Response in assay [1] stood at 60%.
As to `N#Cc1c(N2CCC[C@@H]2CO)[nH]c2cccnc12`, the Response in assay [1] was found to be 0%. In addition, in assay [2], the EC50 result is given as “Not Active”.
As for `N#Cc1c(N2CC[C@@H](O)C2)[nH]c2cccnc12`, in assay [1], the Response was 0%. Besides, the EC50 result in assay [2] was “Not Active”.
Taken in the same sequence, the figures for `N#Cc1c(N2CCC[C@H]2CO)[nH]c2cccnc12` were 0% and “Not Active”.
Taken in the same sequence, the figures for `N#Cc1c(N2CCCC2)[nH]c2cccnc12` were 58% and 8.12 µM.
With `N#Cc1c(N2CCC(O)CC2)[nH]c2cccnc12`, in assay [1], the Response came out at 28%. Also, the concentration for a half-maximal effect (EC50) in assay [2] came out at 15.1 µM.
Taken in the same sequence, the figures for `N#Cc1c(N2CCOCC2)[nH]c2cccnc12` were 62% and 3.86 µM.
Regarding `CN1CCN(c2[nH]c3cccnc3c2C#N)CC1`, the Response in assay [1] came out at 0%. Further, in assay [2], the EC50 result is given as “Not Active”.
Taken in the same sequence, the figures for `N#Cc1c(N2CC3CCC(CC3)C2)[nH]c2cccnc12` were 74% and 4.43 µM.
Regarding `N#Cc1c(NCc2ccccc2)[nH]c2cccnc12`, the Response in assay [1] amounted to 0%. The EC50 result in assay [2] is recorded as “Not Active”.
For the molecule `Cc1c(-c2ccccc2F)[nH]c(N)c1C#N`, the Response in assay [5] came out at 21.7%. The molecule also gave an Efficacy in the assay listed under Sus scrofa [3] of 93%. The molecule also gave a half-maximal effective concentration (EC50) in the assay filed under Sus scrofa [4] of 63.1 µM.
As to `N#Cc1c(N2CCC3CCCCC3C2)[nH]c2cccnc12` (stereo unspecified), the Response in assay [1] turned out to be 0%. The EC50 result in assay [2] is “Not Active”.
Consider `N#Cc1c(N2CCCCCC2)[nH]c2cccnc12`, for which the Activity in assay [5] stood at 105%. Also, in the assay filed under Sus scrofa [3], the Efficacy is 63%. Also, the results for the EC50 (in the assay listed under Sus scrofa [4]; in assay [2]) were 25.9 µM and 3.34 µM, respectively. The Response in assay [1] turned out to be 61%.
On to `CN1CCCN(c2[nH]c3cccnc3c2C#N)CC1`, for which, in assay [1], the Response was 0%. In addition, the EC50 entry in assay [2] is “Not Active”.
Turning to `CCCN(CCO)c1[nH]c2cccnc2c1C#N`, the Response in assay [1] was determined as 0%. Besides, the EC50 result in assay [2] is “Not Active”.
Taken in the same sequence, the figures for `N#Cc1c(Nc2ccccc2)[nH]c2cccnc12` were 0% and “Not Active”.
Taken in the same sequence, the figures for `CCN(CC)c1[nH]c2cccnc2c1C#N` were 57% and 6.94 µM.
Taken in the same sequence, the figures for `N#Cc1c(Cl)[nH]c2cccnc12` were 0% and “Not Active”.
On to `CN(C)CCN(C)c1[nH]c2cccnc2c1C#N`, for which the Response in assay [1] worked out at 63%. For the same molecule, the EC50 in assay [2] came to 6.75 µM.
Taken in the same sequence, the figures for `C[C@@H]1CC[C@@H](C)N1c1[nH]c2cccnc2c1C#N` were 0% and “Not Active”.
For `N#Cc1c(N2CCC[C@H](O)C2)[nH]c2cccnc12`, the Activity in assay [5] was determined as 108%. The molecule also came in with an Efficacy in the assay listed under Sus scrofa [3] of 31%. Moreover, the results for the concentration giving a half-maximal response (EC50) (in the assay filed under Sus scrofa [4]; in assay [2]) were 9.26 µM and 5.07 µM, respectively. Also, the Response in assay [1] stood at 65%.

The values above are taken from ChEMBL document CHEMBL1136537, “The discovery of a new class of large-conductance Ca2+-activated K+ channel opener targeted for overactive bladder: synthesis and structure-activity relationships of 2-amino-4-azaindoles” (Bioorg Med Chem Lett, 2003).
